Values joined by “and” are separate entries in the source; they are usually repeats but may differ in a detail not shown here. Equal entries are not always repeated. Where two headings read alike, the source gives them in different places.
Legend:
[1] = Pharmacokinetics in male Sprague Dawley rats; type: in vivo, rat; details: for AUC: read-out: Plasma AUCoral; for Cmax: read-out: Plasma Cmax; for half-life: plasma; for Plasma Concentration: oral 1 mg/kg
Protocol: IV and oral formulations were prepared using the same method. On the day of dosing the solid compound was dissolved in DMSO prior to addition of a saline solution (0.9% w/v). The samples were then mixed using vortexing producing colourless solutions. The IV formulation was filtered through a 0.22 μm syringe filter prior to dosing and the oral formulation was dosed without filtration.
Samples of arterial blood were collected up to 168 h post-dose. Urine samples were not collected as animals were housed in bedded cages. Arterial blood was collected directly into borosilicate vials (at 4° C.) containing heparin as anticoagulant. Once collected, blood samples were centrifuged, supernatant plasma was removed and stored frozen (−80° C.) until analysis by LC-MS. A summary of the bioanalytical method and assay validation details is included in Tables 14 and 15.
Plasma concentration versus time data were analysed using non-compartmental methods (PKSolver Version 2.0). Standard calculations for each pharmacokinetic parameter are listed below.

[2] = In vitro metabolic stability, mouse liver microsomes; type: in vitro ADME; details: mouse liver microsomes; read-out: m CLint
Protocol: In Vitro Metabolic Stability. As described by Charman et al. (2020), metabolic stability assays were performed by incubating test compounds in liver microsomes at 37° C. and 0.4 mg/mL protein concentration. The metabolic reaction was initiated by the addition of an NADPH-regenerating system and quenched at various time points over a 60 min incubation period by the addition of acetonitrile containing diazepam as internal standard. Control samples (containing no NADPH) were included (and quenched at 2, 30 and 60 min) to monitor for potential degradation in the absence of cofactor.

[3] = male, Sprague Dawley, rat, in vivo, po, 1 mg/kg, rats, PO 1 mg/kg, individual rats
[4] = male, Sprague Dawley, rat, in vivo, po, 1 mg/kg, rats, PO 1 mg/kg, mean (n = 3)
[5] = rats, IV 1 mg/kg, individual rats
[6] = rats, PO 1 mg/kg, individual rats

CC1(C)NC(=O)N(c2ccc(F)c(C(C)(F)F)c2)C1=O [Compound IC, 3-(3-(1,1-difluoroethyl)-4-fluorophenyl)-5,5-dimethylimidazolidine-2,4-dione]
Vd ([1]; male, Sprague Dawley, rat, in vivo, iv, 1 mg/kg, rats, IV 1 mg/kg, mean (n = 3), read-out: Plasma Vss): 1.25 L/kg
clearance ([1]; male, Sprague Dawley, rat, in vivo, iv, 1 mg/kg, rats, IV 1 mg/kg, mean, read-out: Blood CL): 0.687 mL/min/kg
Vd ([1]; male, Sprague Dawley, rat, in vivo, iv, 1 mg/kg, rats, IV 1 mg/kg, mean, read-out: Blood Vss): 1.04 L/kg
AUC [1, 3]: 23300 ng·h/mL
Cmax [1, 3]: 614 ng/mL
AUC [1, 4]: 20400 ng·h/mL
Cmax [1, 4]: 572 ng/mL
Tmax ([1]; male, Sprague Dawley, rat, in vivo, po, 1 mg/kg, rats, PO 1 mg/kg, mean (n = 3), read-out: Tmax): 6.7 h
half-life ([1]; male, Sprague Dawley, rat, iv, 1 mg/kg, rats, IV 1 mg/kg, individual rats, read-out: Apparent t1/2 (converted)): 13 h
half-life ([1]; male, Sprague Dawley, rat, iv, 1 mg/kg, rats, IV 1 mg/kg, mean (n = 3), read-out: Apparent t1/2 (converted)): 15 h
half-life ([1]; male, Sprague Dawley, rat, other: IV and oral, 1 mg/kg, rats, following IV and oral administration 1 mg/kg, read-out: apparent half-life): 13 to 19 h
half-life ([1]; male, Sprague Dawley, rat, po, 1 mg/kg, rats, PO 1 mg/kg, individual rats, read-out: Apparent t1/2 (converted)): 16 h
half-life ([1]; male, Sprague Dawley, rat, po, 1 mg/kg, rats, PO 1 mg/kg, mean (n = 3), read-out: Apparent t1/2 (converted)): 16 h
Plasma Concentration ([1]; 1.00 h, individual rats): 614 ng/mL and 430 ng/mL and 184 ng/mL
Plasma Concentration ([1]; 1.00 h, mean): 409 ng/mL
Plasma Concentration ([1]; 2.00 h, individual rats): 612 ng/mL and 506 ng/mL and 427 ng/mL
Plasma Concentration ([1]; 2.00 h, mean): 515 ng/mL
Plasma Concentration ([1]; 4.00 h, individual rats): 545 ng/mL and 477 ng/mL and 474 ng/mL
Plasma Concentration ([1]; 4.00 h, mean): 499 ng/mL
Plasma Concentration ([1]; 7.00 h, individual rats): 612 ng/mL and 559 ng/mL and 455 ng/mL
Plasma Concentration ([1]; 7.00 h, mean): 542 ng/mL
Plasma Concentration ([1]; 24.00 h, individual rats): 365 ng/mL and 309 ng/mL and 390 ng/mL
Plasma Concentration ([1]; 24.00 h, mean): 355 ng/mL
Plasma Concentration ([1]; 36.00 h, individual rats): 294 ng/mL and 183 ng/mL and 254 ng/mL
Plasma Concentration ([1]; 36.00 h, mean): 243 ng/mL
Plasma Concentration ([1]; 48.00 h, individual rats): 188 ng/mL and 94 ng/mL and 170 ng/mL
Plasma Concentration ([1]; 48.00 h, mean): 151 ng/mL
Plasma Concentration ([1]; 72.00 h, individual rats): 82.4 ng/mL and 58.1 ng/mL and 31.5 ng/mL
Plasma Concentration ([1]; 72.00 h, mean): 57 ng/mL
Plasma Concentration ([1]; 96.00 h, individual rats): 32.0 ng/mL and 5.1 ng/mL and 28.5 ng/mL
Plasma Concentration ([1]; 96.00 h, mean): 21.8 ng/mL
Plasma Concentration ([1]; 144.00 h, individual rats): 2.9 ng/mL and 4.4 ng/mL
Plasma Concentration ([1]; 144.00 h, mean): 3.7 ng/mL
adverse reactions or compound-related side effects ([1]; rats, 7-day sampling period after IV or oral 1 mg/kg): no adverse reactions or compound-related side effects
Apparent t1/2 [1, 5]: 14 h
Blood CL [1, 5]: 0.589 mL/min/kg and 0.808 mL/min/kg
Blood Vss [1, 5]: 0.991 L/kg and 1.19 L/kg
Plasma AUCIV [1, 5]: 23600 ng·h/mL and 17200 ng·h/mL
Plasma CL [1, 5]: 0.707 mL/min/kg and 0.970 mL/min/kg
Plasma Vss [1, 5]: 1.19 L/kg and 1.43 L/kg
Apparent t1/2 ([1]; rats, IV 1 mg/kg, mean (n = 3)): 15 h
Plasma AUCIV ([1]; rats, IV 1 mg/kg, mean (n = 3)): 20600 ng·h/mL
time for which measurable plasma concentrations were observed ([1]; rats, IV and oral 1 mg/kg): up to 6 days
Apparent t1/2 [1, 6]: 13 h and 19 h
BA [1, 6]: 113% and 85.5% and 99.2%
Plasma AUCoral [1, 6]: 17600 ng·h/mL
Plasma Cmax [1, 6]: 559 ng/mL and 543 ng/mL
Tmax [1, 6]: 1.0 h and 7.0 h and 12 h
Apparent t1/2 ([1]; rats, PO 1 mg/kg, mean (n = 3)): 16 h
Plasma Cmax ([1]; rats, PO 1 mg/kg, mean (n = 3)): 572 ng/mL
microsomal CLint [2]: < 7 µL/min/mg

— patent US20250353819A1, “ARYL HYDANTOIN COMPOUNDS AND METHODS OF USE” (priority 2022, published 2025)
